According to patent US20220033397A1, “PHARMACEUTICAL COMPOUNDS AND THEIR USE AS INHIBITORS OF UBIQUITIN SPECIFIC PROTEASE 19 (USP19)” (ALMAC DISCOVERY LIMITED, priority 2018, published 2022):

Molecular target: T1, Full-length USP19 (Homo sapiens, UniProt O94966)
T1 construct: Full-length USP19 was purchased from Boston Biochem (E-576); purchased Boston Biochem E-576
T1 sequence (O94966 1-1318): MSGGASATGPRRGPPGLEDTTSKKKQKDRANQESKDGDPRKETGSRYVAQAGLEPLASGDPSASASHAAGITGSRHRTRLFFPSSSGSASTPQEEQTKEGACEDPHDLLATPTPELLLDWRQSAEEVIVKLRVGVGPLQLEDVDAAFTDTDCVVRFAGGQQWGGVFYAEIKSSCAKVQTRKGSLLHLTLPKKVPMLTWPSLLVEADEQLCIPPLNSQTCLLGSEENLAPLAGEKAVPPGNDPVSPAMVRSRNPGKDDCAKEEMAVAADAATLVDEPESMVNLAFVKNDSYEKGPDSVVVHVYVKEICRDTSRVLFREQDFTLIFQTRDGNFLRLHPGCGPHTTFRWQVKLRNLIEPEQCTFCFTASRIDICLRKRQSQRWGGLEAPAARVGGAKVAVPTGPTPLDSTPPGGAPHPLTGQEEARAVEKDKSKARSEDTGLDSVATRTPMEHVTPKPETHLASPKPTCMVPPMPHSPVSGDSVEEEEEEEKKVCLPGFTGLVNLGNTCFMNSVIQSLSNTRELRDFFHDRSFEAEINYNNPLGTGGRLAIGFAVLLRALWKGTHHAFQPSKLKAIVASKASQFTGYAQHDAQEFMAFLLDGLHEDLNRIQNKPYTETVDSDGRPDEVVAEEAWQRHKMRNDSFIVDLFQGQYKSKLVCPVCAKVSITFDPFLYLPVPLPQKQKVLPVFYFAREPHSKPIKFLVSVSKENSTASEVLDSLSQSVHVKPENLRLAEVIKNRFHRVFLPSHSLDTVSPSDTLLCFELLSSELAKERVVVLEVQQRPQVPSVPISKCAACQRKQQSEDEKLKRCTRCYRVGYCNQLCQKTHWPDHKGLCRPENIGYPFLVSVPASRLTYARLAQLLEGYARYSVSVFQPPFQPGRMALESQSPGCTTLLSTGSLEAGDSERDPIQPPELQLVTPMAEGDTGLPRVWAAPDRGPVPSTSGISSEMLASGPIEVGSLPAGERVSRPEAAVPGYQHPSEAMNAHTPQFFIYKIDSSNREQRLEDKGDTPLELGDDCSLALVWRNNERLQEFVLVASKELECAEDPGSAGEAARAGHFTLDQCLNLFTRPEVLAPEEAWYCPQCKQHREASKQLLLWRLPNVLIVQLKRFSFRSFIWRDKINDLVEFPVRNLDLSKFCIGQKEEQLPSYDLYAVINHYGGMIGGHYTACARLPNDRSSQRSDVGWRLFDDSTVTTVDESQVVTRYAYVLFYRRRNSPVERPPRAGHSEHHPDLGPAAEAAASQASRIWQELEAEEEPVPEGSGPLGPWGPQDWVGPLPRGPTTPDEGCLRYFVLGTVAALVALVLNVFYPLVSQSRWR
Test: USP19 fluorescence polarisation (FP) homogeneous assay with Ubiquitin-Lys-TAMRA substrate
Type: biochemical
Details: 2.5 nM USP19, 30 min pre-incubation, average of at least two duplicate experiments
Method in brief: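 Full-length USP19 preincubated 30 min at RT with inhibitor (200 μM to 2 μM series, 8–18 points) before adding 500 nM Ubiquitin-Lys-TAMRA substrate.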

Row | SMILES | IC50 [µM]
1 | O=C(N1CCC(O)(Cn2cnc(-c3ccccc3)cc2=O)C2(CCCC2)C1)N1CCOCC12CCCCC2 (stereo not drawn) [Example 261, 3-((10-Hydroxy-7-(4-oxa-1-azaspiro[5.5]undecane-1-carbonyl)-7-azaspiro[4.5]decan-10-yl)methyl)-6-phenylpyrimidin-4(3H)-one] | 5 to 50
2 | O=C(N1CCC(C(F)F)C1)N1CCC(O)(Cn2cnc(-c3ccccc3)cc2=O)C2(CCCC2)C1 (stereo not drawn) [Example 262, 3-((7-(3-(Difluoromethyl)pyrrolidine-1-carbonyl)-10-hydroxy-7-azaspiro[4.5]decan-10-yl)methyl)-6-phenylpyrimidin-4(3H)-one] | 5 to 50
3 | O=C(N1CCC(O)(Cn2cnc(-c3ccccc3)cc2=O)C2(CCCC2)C1)N1CCOCC1C(F)(F)F (stereo not drawn) [Example 263, 3-((10-Hydroxy-7-(3-(trifluoromethyl)morpholine-4-carbonyl)-7-azaspiro[4.5]decan-10-yl)methyl)-6-phenylpyrimidin-4(3H)-one] | 5 to 50
4 | O=C(N1CCC(O)(Cn2cnc(-c3ccccc3)cc2=O)C2(CCCC2)C1)N1CCCC1C1CC1 (stereo not drawn) [Example 264, 3-((7-(2-Cyclopropylpyrrolidine-1-carbonyl)-10-hydroxy-7-azaspiro[4.5]decan-10-yl)methyl)-6-phenylpyrimidin-4(3H)-one] | 0.5 to 5
5 | O=C(N1CCC(O)(Cn2cnc(-c3ccccc3)cc2=O)C2(CCCC2)C1)N1CCC[C@H]1c1ccon1 (stereo partly drawn) [Example 265, 3-((10-Hydroxy-7-((S)-2-(isoxazol-3-yl)pyrrolidine-1-carbonyl)-7-azaspiro[4.5]decan-10-yl)methyl)-6-phenylpyrimidin-4(3H)-one] | 0.5 to 5
6 | CN(C)C(=O)[C@@H]1CCCN1C(=O)N1CCC(O)(Cn2cnc(-c3ccccc3)cc2=O)C2(CCCC2)C1 (stereo partly drawn) [Example 266, (2S)-1-(10-Hydroxy-10-((6-oxo-4-phenylpyrimidin-1(6H)-yl)methyl)-7-azaspiro[4.5]decane-7-carbonyl)-N,N-dimethylpyrrolidine-2-carboxamide] | 50 to 250
7 | O=C(N1CCC(O)(Cn2cnc(-c3ccccc3)cc2=O)C2(CCCC2)C1)N1CCC[C@H]1Cc1cccs1 (stereo partly drawn) [Example 267, 3-((10-Hydroxy-7-((S)-2-(thiophen-2-ylmethyl)pyrrolidine-1-carbonyl)-7-azaspiro[4.5]decan-10-yl)methyl)-6-phenylpyrimidin-4(3H)-one] | 50 to 250
8 | O=C(N1CCC(O)(Cn2cnc(-c3ccccc3)cc2=O)C2(CCCC2)C1)N1CCC[C@H]1c1ncn[nH]1 (stereo partly drawn) [Example 268, 3-((7-((S)-2-(1H-1,2,4-Triazol-5-yl)pyrrolidine-1-carbonyl)-10-hydroxy-7-azaspiro[4.5]decan-10-yl)methyl)-6-phenylpyrimidin-4(3H)-one] | 50 to 250
9 | Cc1nc([C@@H]2CCCN2C(=O)N2CCC(O)(Cn3cnc(-c4ccccc4)cc3=O)C3(CCCC3)C2)n[nH]1 (stereo partly drawn) [Example 269, 3-((10-Hydroxy-7-((S)-2-(5-methyl-1H-1,2,4-triazol-3-yl)pyrrolidine-1-carbonyl)-7-azaspiro[4.5]decan-10-yl)methyl)-6-phenylpyrimidin-4(3H)-one] | 50 to 250
10 | CC(C)c1coc([C@@H]2CCCN2C(=O)N2CCC(O)(Cn3cnc(-c4ccccc4)cc3=O)C3(CCCC3)C2)n1 (stereo partly drawn) [Example 270, 3-((10-Hydroxy-7-((S)-2-(4-isopropyloxazol-2-yl)pyrrolidine-1-carbonyl)-7-azaspiro[4.5]decan-10-yl)methyl)-6-phenylpyrimidin-4(3H)-one] | 50 to 250
11 | COc1ccccc1C1CNCCN1C(=O)N1CCC(O)(Cn2cnc(-c3ccccc3)cc2=O)C2(CCCC2)C1 (stereo not drawn) [Example 271, 3-((10-Hydroxy-7-(2-(2-methoxyphenyl)piperazine-1-carbonyl)-7-azaspiro[4.5]decan-10-yl)methyl)-6-phenylpyrimidin-4(3H)-one] | 50 to 250
12 | COc1cccc(C2CNCCN2C(=O)N2CCC(O)(Cn3cnc(-c4ccccc4)cc3=O)C3(CCCC3)C2)c1 (stereo not drawn) [Example 272, 3-((10-Hydroxy-7-(2-(3-methoxyphenyl)piperazine-1-carbonyl)-7-azaspiro[4.5]decan-10-yl)methyl)-6-phenylpyrimidin-4(3H)-one] | 5 to 50
